Results published in the supplement of paper PMC10307832.

Assays:
Experiment in all cases: relative viability (nuclei count vs DMSO), 5 days (fraction); higher = more cells survive
BEN = test system: BEN
Procedure, shortened: (§1)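 Cells from lung cancer lines were seeded into 1536-well plates and, one day later, dosed by pin tool. Treatments were either a single drug or a fixed dose of an anchor drug with five library-drug doses (not always all listed) in √10 steps. After 5 days, nuclei were stained in a one-step fixation (final 0.05% Triton X-100, 1% formaldehyde, 1 ug/ml Hoechst) and counted on 4× images, and relative viability is the treated-to-vehicle nuclei ratio, as the median of duplicate plates.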

EKVX = test system: EKVX
Procedure, shortened: as §1

HARA = test system: HARA
Procedure, shortened: as §1

HCC-366 = test system: HCC-366
Procedure, shortened: as §1

HCC-44 = test system: HCC-44
Procedure, shortened: as §1

HCC-827 = test system: HCC-827
Procedure, shortened: as §1

LC-2-ad = test system: LC-2-ad
Procedure, shortened: as §1

LOU-NH91 = test system: LOU-NH91
Procedure, shortened: as §1

NCI-H1355 = test system: NCI-H1355
Procedure, shortened: as §1

NCI-H1395 = test system: NCI-H1395
Procedure, shortened: as §1

NCI-H1437 = test system: NCI-H1437
Procedure, shortened: as §1

NCI-H1734 = test system: NCI-H1734
Procedure, shortened: as §1

## Clc1ccc(Nc2nnc(Cc3ccncc3)c3ccccc23)cc1 [Vatalanib] + Nc1ncn([C@H]2C[C@H](O)[C@@H](CO)O2)c(=O)n1 [Decitabine] (partner 2 µM)
BEN; first compound 0.04 µM
  relative viability: 0.644
BEN; first compound 0.1265 µM
  relative viability: 0.727
BEN; first compound 0.4 µM
  relative viability: 0.504
BEN; first compound 1.265 µM
  relative viability: 0.739
BEN; first compound 4 µM
  relative viability: 0.774
EKVX; first compound 0.04 µM
  relative viability: 0.41
EKVX; first compound 0.1265 µM
  relative viability: 0.346
EKVX; first compound 0.4 µM
  relative viability: 0.308
EKVX; first compound 1.265 µM
  relative viability: 0.338
EKVX; first compound 4 µM
  relative viability: 0.296
HARA; first compound 0.04 µM
  relative viability: 0.623
HARA; first compound 0.1265 µM
  relative viability: 0.446
HARA; first compound 0.4 µM
  relative viability: 0.463
HARA; first compound 1.265 µM
  relative viability: 0.526
HARA; first compound 4 µM
  relative viability: 0.521
HCC-366; first compound 0.04 µM
  relative viability: 0.328
HCC-366; first compound 0.1265 µM
  relative viability: 0.271
HCC-366; first compound 0.4 µM
  relative viability: 0.395
HCC-366; first compound 1.265 µM
  relative viability: 0.312
HCC-366; first compound 4 µM
  relative viability: 0.348
HCC-44; first compound 0.04 µM
  relative viability: 0.961
HCC-44; first compound 0.1265 µM
  relative viability: 0.944
HCC-44; first compound 0.4 µM
  relative viability: 0.976
HCC-44; first compound 1.265 µM
  relative viability: 0.906
HCC-44; first compound 4 µM
  relative viability: 0.961
HCC-827; first compound 0.04 µM
  relative viability: 0.28
HCC-827; first compound 0.1265 µM
  relative viability: 0.308
HCC-827; first compound 1.265 µM
  relative viability: 0.266
HCC-827; first compound 4 µM
  relative viability: 0.343
LC-2-ad; first compound 0.04 µM
  relative viability: 0.803
LC-2-ad; first compound 0.1265 µM
  relative viability: 0.753
LC-2-ad; first compound 0.4 µM
  relative viability: 0.768
LC-2-ad; first compound 1.265 µM
  relative viability: 0.776
LC-2-ad; first compound 4 µM
  relative viability: 0.861
LOU-NH91; first compound 0.04 µM
  relative viability: 0.766
LOU-NH91; first compound 0.1265 µM
  relative viability: 0.81
LOU-NH91; first compound 0.4 µM
  relative viability: 0.766
LOU-NH91; first compound 1.265 µM
  relative viability: 0.824
LOU-NH91; first compound 4 µM
  relative viability: 0.823
NCI-H1355; first compound 0.04 µM
  relative viability: 0.393
NCI-H1355; first compound 0.1265 µM
  relative viability: 0.328
NCI-H1355; first compound 0.4 µM
  relative viability: 0.343
NCI-H1355; first compound 1.265 µM
  relative viability: 0.33
NCI-H1355; first compound 4 µM
  relative viability: 0.356
NCI-H1395; first compound 0.04 µM
  relative viability: 0.718
NCI-H1395; first compound 0.1265 µM
  relative viability: 0.702
NCI-H1395; first compound 0.4 µM
  relative viability: 0.722
NCI-H1395; first compound 4 µM
  relative viability: 0.665
NCI-H1437; first compound 0.04 µM
  relative viability: 0.53
NCI-H1437; first compound 0.1265 µM
  relative viability: 0.523
NCI-H1437; first compound 0.4 µM
  relative viability: 0.573
NCI-H1437; first compound 1.265 µM
  relative viability: 0.587
NCI-H1437; first compound 4 µM
  relative viability: 0.608
NCI-H1734; first compound 0.04 µM
  relative viability: 0.575
NCI-H1734; first compound 0.1265 µM
  relative viability: 0.51
NCI-H1734; first compound 0.4 µM
  relative viability: 0.592
